From patent US20230295159A1, “ATX INHIBITOR, AND PREPARATION METHOD THEREFOR AND USE THEREOF” (SUZHOU ARK BIOPHARMACEUTICAL CO., LTD., priority 2020, published 2023)
Read-outs that look alike come from different tables or passages of the source.

Assays:
[1] = Rat pharmacokinetic study; assay type: in vivo, SD rat; details: for F: PO 10 mg/kg vs IV 2 mg/kg; for AUC(0-inf) / AUC(0-t) / Cmax / half-life / Tmax: SD, plasma; for half-life: read-out: t½ (converted)
Method: SD rat pharmacokinetic study was performed on several compounds in Examples of the present disclosure through a single intravenous injection (IV, at a dose of 2 mg/kg) and a single oral administration (PO, at a dose of 10 mg/kg), and blood samples were taken before administration and 5 min, 15 min, 30 min, 1 h, 2 h, 4 h, 8 h, 12 h and 24 h after administration, respectively, to determine the plasma concentration of the compound for assay. The pharmacokinetic data of control compound and the compounds in Examples 17, 26, 28 and 29 of the present disclosure in rat plasma are shown in Tables 4-8.

ATX enzyme = ATX enzyme (Homo sapiens (Human), UniProt Q13822); assay: ATX enzyme activity inhibition assay; assay type: biochemical; details: 16:0-LPC substrate, Amplex UltraRed fluorescence
Method: The tested compounds were dissolved with dimethyl sulfoxide (DMSO) to prepare 20 mM of stock solutions, the stock solutions were subjected to 4-fold gradient dilutions with DMSO, with the initial concentration of 20 µM and a total of 8 concentration gradients. 20 nL of diluted compound was transferred to a 384-well plate using Echo 550 and 5 µL of ATX enzyme solution formulated with 4 × Tris-HCl reaction buffer to the well, then the 384-well plate was centrifuged at 1000 rpm for 1 min and […] pre-incubated at room temperature for 15 min. Subsequently, 5 µL of 16:0-LPC foumulated with the above 4 × reaction buffer and 10 µL of assay solution containng 2 × Amplex UltraRed reagent, choline oxidase and horseradish peroxidase (HRP) foumulated with the same reaction buffer were added to each well, then the 384-well plate was centrifugated at 1000 rpm for 1 min. The fluorescence signals were read at an excitation wavelength of 530 nm and an emission wavelength of 590 nm by Synergy 2 microplate reader. The inhibition rate of the compound against enzyme reaction was calculated according to the fluorescence intensity ratio, and IC50 of the compound was analysed and calculated by GraphPad Prism 5 software.

CYP3A4 = CYP3A4 (Homo sapiens (Human), UniProt P08684); assay: 3A4 subtype of CYP450 enzyme time-dependent inhibition assay (IC50 shift); assay type: in vitro ADME; details: probe testosterone, 50 µM; 30 min pre-incubation with vs without NADPH, testosterone substrate, human liver microsomes
Method: (§1) The probe substrate was testosterone at a concentration of 50 µM. The reaction was terminated after incubation for 10 min. The IC50 of the compound against enzyme was calculated by measuring the relative yield of metabolite, and the IC50 shift was calculated from the IC50 results of the groups pre-incubated with and without addition of NADPH.

[2] = system: Chinese hamster ovary cells (CHO-WBL); assay: In vitro micronucleus assay with Chinese hamster ovary cells
Method: In the major micronucleus assay, CHO-WBL cells were exposed to at least 3 concentrations of the test object, while vehicle control group and positive control group were set up, with 2 replicated wells for each dose group. In inactivated test system, the administration lasted for 3 and 24 hours, and in S9 activated test system, the exposure to the test object lasted for 3 hours.
When choosing the highest dose for micronucleus frequency assay, the cytotoxicity of dose group of the test object should not substantially exceed 50% of that of the corresponding vehicle control group.
On the premise that the test is valid, the test results are evaluated according to the following criteria:
If the test object simutaneously meets the following criteria, it can be considered as positive:
A significant increase in micronucleus frequency is observed in one or more concentration groups.
If none of the above three points is met, the test object can be considered as negative.

hERG potassium channel = hERG potassium channel (Homo sapiens (Human), UniProt Q12809); assay: hERG inhibition assay (manual whole-cell patch clamp); assay type: cell-based; details: hERG tail current, stable transfected cell line
Method: Rapid activation of human delayed rectifier potassium current (IKr) is mainly mediated by hERG ion channel and participates in repolarization of human cardiomyocytes. Blocking this current with drugs will lead to QT interval prolongation syndrome in clinical practice, which will easily induce acute arrhythmia and even sudden death.
Experimental method: a whole-cell patch clamp technique was used to record hERG current. The cell suspension was added to a small petri dish and placed on an inverted microscope stage. After adherence, the cells were perfused with extracellular fluid at a recommended flow rate of 1-2 mL/min. The glass microelectrode was drawn by a microelectrode drawing instrument in two steps, and the resistance thereof after filling the electrode interior liquid was 2-5 MΩ. After the whole-cell recording mode was set up, the clamping potential was maintained at -80 mV. The depolarization voltage was applied to +60 mV for 850 ms, and then repolarized to -50 mV for 1275 ms to induce hERG tail current. Such a set of pulse programming was repeated every 15 seconds throughout the experiment. After the current was stable, the drug was administered by extracellular continuous perfusion from low concentration to high concentration. Starting from low concentration, perfusion continued until the drug effect was stable, then perfusion at the next concentration was performed. In this experiment, the blocking effect on hERG tail current was tested for the test objects at different concentrations and the positive control (N ≥ 2). Then, stimulus generation and signal acquisition were carried out by PatchMaster software; and a signal was amplified with a patch clamp amplifier. FitMaster, EXCEL, Graphpad Prism, SPSS 21.0, etc. were used for further data analysis and curve fitting. In data processing, when determining the blocking effect on hERG, the peak and baseline of tail current were calibrated. The inhibition rate (IR) of tail current was used to express the effect of the compounds at different concentrations.
IR = 100% × (peak of tail current before administration - peak of tail current after administration)/peak of tail current before administration.
IC50 was obtained by fitting the Hill equation (if applicable), if the maximum inhibition rate of the test object at all concentrations was less than 50%, then IC50 was not calculated. [00500]

[3] = biological target: 3A4 subtype of CYP450 enzyme (Homo sapiens (Human), UniProt P08684); assay: 3A4 subtype of CYP450 enzyme time-dependent inhibition assay (IC50 shift); assay type: in vitro ADME; details: both IC50 values above top concentration; testosterone substrate; read-out: IC50 against 3A4 subtype (both groups, pre-incubated with and without NADPH)
Method: as §1

Sequence of hERG potassium channel (Q12809 whole entry): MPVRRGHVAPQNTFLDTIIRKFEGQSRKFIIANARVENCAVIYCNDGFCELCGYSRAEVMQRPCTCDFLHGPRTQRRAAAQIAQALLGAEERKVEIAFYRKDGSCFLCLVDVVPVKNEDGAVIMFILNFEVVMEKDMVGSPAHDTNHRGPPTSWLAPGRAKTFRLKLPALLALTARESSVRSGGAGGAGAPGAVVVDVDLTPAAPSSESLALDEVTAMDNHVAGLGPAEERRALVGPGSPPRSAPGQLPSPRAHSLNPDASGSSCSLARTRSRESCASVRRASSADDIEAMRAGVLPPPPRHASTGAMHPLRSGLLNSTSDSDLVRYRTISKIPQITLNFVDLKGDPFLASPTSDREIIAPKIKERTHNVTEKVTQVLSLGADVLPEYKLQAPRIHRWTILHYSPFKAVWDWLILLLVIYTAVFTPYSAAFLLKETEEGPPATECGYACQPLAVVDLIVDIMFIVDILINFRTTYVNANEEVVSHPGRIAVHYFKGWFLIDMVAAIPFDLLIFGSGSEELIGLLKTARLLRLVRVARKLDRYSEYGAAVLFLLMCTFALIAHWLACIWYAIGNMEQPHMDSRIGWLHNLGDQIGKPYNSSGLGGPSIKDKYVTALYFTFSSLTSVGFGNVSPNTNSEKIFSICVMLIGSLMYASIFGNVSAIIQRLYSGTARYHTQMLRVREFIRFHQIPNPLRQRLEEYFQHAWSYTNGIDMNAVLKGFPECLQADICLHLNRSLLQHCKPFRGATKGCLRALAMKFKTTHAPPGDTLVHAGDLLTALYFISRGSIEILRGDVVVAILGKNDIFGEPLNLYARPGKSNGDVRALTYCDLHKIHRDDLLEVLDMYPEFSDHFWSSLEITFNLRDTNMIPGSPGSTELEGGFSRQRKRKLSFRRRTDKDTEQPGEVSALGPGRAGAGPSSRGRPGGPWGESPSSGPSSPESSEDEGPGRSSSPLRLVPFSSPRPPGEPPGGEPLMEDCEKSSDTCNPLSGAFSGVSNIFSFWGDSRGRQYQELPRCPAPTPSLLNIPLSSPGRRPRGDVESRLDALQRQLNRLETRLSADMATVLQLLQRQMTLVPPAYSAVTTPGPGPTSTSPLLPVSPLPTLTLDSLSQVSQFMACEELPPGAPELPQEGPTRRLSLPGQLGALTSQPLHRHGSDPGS
Sequence of CYP3A4 (P08684 whole entry): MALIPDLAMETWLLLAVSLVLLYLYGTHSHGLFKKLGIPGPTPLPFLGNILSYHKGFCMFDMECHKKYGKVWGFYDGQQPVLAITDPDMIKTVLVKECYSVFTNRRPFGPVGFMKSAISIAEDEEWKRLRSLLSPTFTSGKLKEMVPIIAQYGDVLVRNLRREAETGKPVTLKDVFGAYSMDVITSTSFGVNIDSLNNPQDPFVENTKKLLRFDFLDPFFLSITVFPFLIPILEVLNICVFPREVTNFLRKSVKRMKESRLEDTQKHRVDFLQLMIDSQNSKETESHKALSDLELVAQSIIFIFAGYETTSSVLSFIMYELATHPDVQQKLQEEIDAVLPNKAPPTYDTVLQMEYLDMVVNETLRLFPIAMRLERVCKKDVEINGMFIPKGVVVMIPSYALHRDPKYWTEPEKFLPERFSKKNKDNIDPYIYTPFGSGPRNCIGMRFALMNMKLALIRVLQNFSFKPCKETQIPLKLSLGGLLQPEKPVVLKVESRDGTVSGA
Sequence of 3A4 subtype of CYP450 enzyme (P08684 whole entry): as above

| Compound | Cl_F_pred ([1]; IV 2 mg/kg) [mL/min/kg] | Cl_F_pred ([1]; PO 10 mg/kg) [mL/min/kg] | F [1] [%] | AUC(0-inf) ([1]; IV 2 mg/kg) [ng·h/mL] | AUC(0-t) ([1]; IV 2 mg/kg) [ng·h/mL] | Cmax ([1]; IV 2 mg/kg) [ng/mL] | half-life ([1]; IV 2 mg/kg) [h] | AUC(0-inf) ([1]; PO 10 mg/kg) [ng·h/mL] | AUC(0-t) ([1]; PO 10 mg/kg) [ng·h/mL] | Cmax ([1]; PO 10 mg/kg) [ng/mL] | Tmax ([1]; PO 10 mg/kg) [h] | half-life ([1]; PO 10 mg/kg) [h] | IC50 (ATX enzyme) [µM] | IC50 shift at 10 min (CYP3A4) | IC50 (hERG potassium channel) [µM] | other results |
| --- | --- | --- | --- | --- | --- | --- | --- | --- | --- | --- | --- | --- | --- | --- | --- | --- |
| CCN(c1nc(-c2ccc(F)cc2)c(C#N)s1)c1c2nc(-c3cnc(N4CCC(O)CC4)nc3)ccc2nn1CC [Example 26, 2-(ethyl(2-ethyl-5-(2-(4-hydroxypiperidin-1-yl)pyrimidin-5-yl)-2H-pyrazolo[4,3-b]pyridin-3-yl)amino)-4-(4-fluorophenyl)thiazole-5-carbonitrile] | 4.17 | 25 | 16.6 | 8170 | 7500 | 3070 | 9.3 | 6720 | 6230 | 663 | 4 | 5.8 | 0.0055 | 1.09 | > 30 | % binuclear cells containing micronucleus ([2]; 3-hour administration with metabolic activation, 3 µg/ml): 1.65%; % binuclear cells containing micronucleus ([2]; 3-hour administration with metabolic activation, 6 µg/ml): 1.65%; % binuclear cells containing micronucleus ([2]; 3-hour administration with metabolic activation, 12 µg/ml): 1.75%; % binuclear cells containing micronucleus ([2]; 3-hour administration with metabolic activation, 20 µg/ml): 1.60%; % binuclear cells containing micronucleus ([2]; 3-hour administration without metabolic activation, 3 µg/ml): 1.85%; % binuclear cells containing micronucleus ([2]; 3-hour administration without metabolic activation, 6 µg/ml): 1.80%; % binuclear cells containing micronucleus ([2]; 3-hour administration without metabolic activation, 12 µg/ml): 1.70%; % binuclear cells containing micronucleus ([2]; 3-hour administration without metabolic activation, 25 µg/ml): 1.50%; % binuclear cells containing micronucleus ([2]; 24-hour administration without metabolic activation, 1 µg/ml): 1.90%; % binuclear cells containing micronucleus ([2]; 24-hour administration without metabolic activation, 3 µg/ml): 1.65%; % binuclear cells containing micronucleus ([2]; 24-hour administration without metabolic activation, 6 µg/ml): 1.85%; % binuclear cells containing micronucleus ([2]; 24-hour administration without metabolic activation, 9 µg/ml): 1.80%; potential to induce micronucleus formation in CHO-WBL cells ([2]; overall verdict over all administration series): negative |
| CCN(c1nc(-c2ccc(F)cc2)c(C#N)s1)c1c2nc(-c3cnc(N4CC(O)C4)nc3)ccc2nn1CC [Example 23, 2-(ethyl(2-ethyl-5-(2-(3-hydroxyazetidin-1-yl)pyrimidin-5-yl)-2H-pyrazolo[4,3-b]pyridin-3-yl)amino)-4-(4-fluorophenyl)thiazole-5-carbonitrile] | – | – | – | – | – | – | – | – | – | – | – | – | 0.011 | – | – | IC50 [3]: > 100 µM |
| CCN(c1nc(-c2ccc(F)cc2)c(C#N)s1)c1c2nc(-c3cnc(N4CC[C@@H](O)C4)nc3)ccc2nn1CC [Example 28, (R)-2-(ethyl(2-ethyl-5-(2-(3-hydroxypyrrolidin-1-yl)pyrimidin-5-yl)-2H-pyrazolo[4,3-b]pyridin-3-yl)amino)-4-(4-fluorophenyl)thiazole-5-carbonitrile] | 2.33 | 10 | 25.9 | 14100 | 13900 | 4380 | 4.1 | 18600 | 18000 | 1720 | 4 | 4.2 | 0.0038 | 1.28 | – | – |
| CCc1nc2ccc(-c3cnc(CC(=O)N4CC(O)C4)cn3)cn2c1N(C)c1nc(-c2ccc(F)cc2)c(C#N)s1 [Example 4, 2-((2-ethyl-6-(5-(2-(3-hydroxyazetidin-1-yl)-2-oxoethyl)pyrazin-2-yl)imidazo[1,2-a]pyridin-3-yl)(methyl)amino)-4-(4-fluorophenyl)thiazole-5-carbonitrile] | – | – | – | – | – | – | – | – | – | – | – | – | 0.021 | 1.04 | – | – |
| CCN(c1nc(-c2ccc(F)cc2)c(C#N)s1)c1c2nc(-c3cnc(N4CC[C@H](O)C4)nc3)ccc2nn1CC [Example 27, (S)-2-(ethyl(2-ethyl-5-(2-(3-hydroxypyrrolidin-1-yl)pyrimidin-5-yl)-2H-pyrazolo[4,3-b]pyridin-3-yl)amino)-4-(4-fluorophenyl)thiazole-5-carbonitrile] | – | – | – | – | – | – | – | – | – | – | – | – | 0.0046 | 0.63 | > 30 | – |
| CCN(c1nc(-c2ccc(F)cc2)c(C#N)s1)c1c2nc(-c3cnc(N4CCCS4(=O)=O)nc3)ccc2nn1CC [Example 17, 2-((5-(2-(1,1-dioxidoisothiazolidin-2-yl)pyrimidin-5-yl)-2-ethyl-2H-pyrazolo[4,3-b]pyridin-3-yl)(ethyl)amino)-4-(4-fluorophenyl)thiazole-5-carbonitrile] | 7.17 | 18.2 | 38.5 | 4720 | 4680 | 2540 | 4 | 9180 | 9030 | 1030 | 4 | 3.7 | 0.0074 | – | > 30 | IC50 [3]: > 100 µM |
| CCc1nc2ccc(-c3cnc(CC(=O)NCC4CCC(=O)N4)cn3)cn2c1N(C)c1nc(-c2ccc(F)cc2)c(C#N)s1 (stereo not shown) [Example 14, 2-(5-(3-((5-cyano-4-(4-fluorophenyl)thiazol-2-yl)(methyl)amino)-2-ethylimidazo[1,2-a]pyridin-6-yl)pyrazin-2-yl)-N-((5-oxopyrrolidin-2-yl)methyl)acetamide] | – | – | – | – | – | – | – | – | – | – | – | – | 0.042 | – | – | – |
| CCc1nc2ccc(-c3cnc(CC(=O)N4CC[C@H](O)C4)cn3)cn2c1N(C)c1nc(-c2ccc(F)cc2)c(C#N)s1 [Example 11, (S)-2-((2-ethyl-6-(5-(2-(3-hydroxypyrrolidin-1-yl)-2-oxoethyl)pyrazin-2-yl)imidazo[1,2-a]pyridin-3-yl)(methyl)amino)-4-(4-fluorophenyl)thiazole-5-carbonitrile] | – | – | – | – | – | – | – | – | – | – | – | – | 0.025 | – | – | – |
| CCc1nc2ccc(-c3cnc(CC(=O)N4CC(O)C4)c(F)c3)cn2c1N(C)c1nc(-c2ccc(F)cc2)c(C#N)s1 [Example 3, 2-((2-ethyl-6-(5-fluoro-6-(2-(3-hydroxyazetidin-1-yl)-2-oxoethyl)pyridin-3-yl)imidazo[1,2-a]pyridin-3-yl)(methyl)amino)-4-(4-fluorophenyl)thiazole-5-carbonitrile] | – | – | – | – | – | – | – | – | – | – | – | – | 0.0052 | – | – | – |
